Test results published in patent US5556744A, “Methods and compositions for diagnosing and treating certain HIV infected patients” (The Trustees of the University of Pennsylvania, priority 1994, dated 1996).

Tested on: maternal sera (antibodies)
Assay: ELISA peptide-binding of maternal sera (Example 6)
Set-up: species or system human
Conditions: for Correlation of peptide binding with non-transmitters (in words) / Fold binding, non-transmitters vs transmitters: Example 6; for Number of Non-Transmitters which bound to peptide / Percent of Non-Transmitters which bound to peptide: N = 12; for Number of Transmitters which bound to peptide / Percent of Transmitters which bound to peptide: N = 4
Text: A total of 86 maternal sera samples obtained from patients of the Hospital of the University of Pennsylvania during the third trimester of pregnancy were used in this study 58 (67%) were non-transmitters and 28 (33%) were transmitters. This is approximately consistent with the national average (i.e. a rate of transmission between 25-30%). Transmission status was based upon serological or molecular diagnosis of children (at an age of greater than 15 months) born to these mothers. Because of the constraints on the volume of serum available for many of these samples, not all sera were analyzed with all the peptides. However, each sera sample was run with at least 40 peptides.
These peptides are of an average length of 16 amino acids and covered the entire external as well as the transmembrane glycoprotein of HIV-1. Peptide binding was analyzed by ELISA essentially as described in Example 3.
The results of one study, using some of the peptides identified above among others, is provided in Table 12, which illustrates the number and percent of non-transmitters which bound to the tested peptide. The percentage designation refers to the percentage of sera samples which bound to a particular peptide. A value of greater than 0% means that at least one of the samples bound to the particular peptides.

## YNKRKRIHIQRGPGRAFYTTKNII [AIDS-PND]
  Correlation of peptide binding with non-transmitters (in words): selectively correlate with non-transmitters
  Fold binding, non-transmitters vs transmitters: at least two fold greater
  Number of Non-Transmitters which bound to peptide: 7
  Percent of Non-Transmitters which bound to peptide: 58.3%
  Number of Transmitters which bound to peptide: 1
  Percent of Transmitters which bound to peptide: 25%
Listed as AID-PND
  Percent of Non-Transmitters which bound to peptide: greater than 50%

## BS-1: gp120 peptide, amino acids 319-329, SEQ ID NO:114 (TIGKIGNMRQA)
  Number of Non-Transmitters which bound to peptide: 0
  Percent of Non-Transmitters which bound to peptide: 0%
  Number of Transmitters which bound to peptide: 0
  Percent of Transmitters which bound to peptide: 0%

## 41-11: gp41 peptide, amino acids 541-564, HIV strain MN, SEQ ID NO: 157 (QARQLLSGIVQQQNNLLRAIEAQQ) [Peptide 41-11]
  Number of Non-Transmitters which bound to peptide: 0
  Percent of Non-Transmitters which bound to peptide: 0%
  Number of Transmitters which bound to peptide: 0
  Percent of Transmitters which bound to peptide: 0%

## 124: gp41 peptide, amino acids 646-660, SEQ ID NO:123 (IEESQNQQEKNEQEL) [Peptide 124]
  Number of Non-Transmitters which bound to peptide: 0
  Percent of Non-Transmitters which bound to peptide: 0%
  Number of Transmitters which bound to peptide: 0
  Percent of Transmitters which bound to peptide: 0%

## S19C: Peptide S19C, Sequence ID No. 196; described in the January 1991 Catalog (STQLLLNGSLAEEEVVIR)
  Number of Non-Transmitters which bound to peptide: 0
  Percent of Non-Transmitters which bound to peptide: 0%
  Number of Transmitters which bound to peptide: 0
  Percent of Transmitters which bound to peptide: 0%

## 105: gp120 peptide, amino acids 286-300, SEQ ID NO:112 (VQLNTSVEINCTRPN) [Peptide 105]
  Number of Non-Transmitters which bound to peptide: 0
  Percent of Non-Transmitters which bound to peptide: 0%
  Number of Transmitters which bound to peptide: 0
  Percent of Transmitters which bound to peptide: 0%

## p41-20: gp41 peptide, amino acids 644-663, HIV strain IIIB, SEQ ID NO: 154 (SLIEESQNQQEKNEQELLEL)
  Number of Non-Transmitters which bound to peptide: 2
  Percent of Non-Transmitters which bound to peptide: 16.7%
  Number of Transmitters which bound to peptide: 0
  Percent of Transmitters which bound to peptide: 0%

## A405: gp120 peptide, amino acids 405-423, HIV strain Z3, SEQ ID NO: 130 (TGNITLPCRIKQVVRTWQG) [Peptide A405]
  Number of Non-Transmitters which bound to peptide: 1
  Percent of Non-Transmitters which bound to peptide: 8.3%
  Number of Transmitters which bound to peptide: 0
  Percent of Transmitters which bound to peptide: 0%

## A6938: gp120 peptide, amino acids 200-217, HIV strain IIIB, SEQ ID NO: 135 (VITQACPKVSFEPIPIHY) [Peptide A6938]
  Number of Non-Transmitters which bound to peptide: 0
  Percent of Non-Transmitters which bound to peptide: 0%
  Number of Transmitters which bound to peptide: 0
  Percent of Transmitters which bound to peptide: 0%

## A733: gp41 peptide, amino acids 728-745, HIV strain IIIB, SEQ ID NO: 174 (DRPEGIEEEGGERDRDRS) [Peptide A733]
  Number of Non-Transmitters which bound to peptide: 1
  Percent of Non-Transmitters which bound to peptide: 8.3%
  Number of Transmitters which bound to peptide: 0
  Percent of Transmitters which bound to peptide: 0%

## RG-1: gp41 peptide, amino acids 510-516, HIV strain IIIB, SEQ ID NO: 177 (KRAVGIG)
  Number of Non-Transmitters which bound to peptide: 3
  Percent of Non-Transmitters which bound to peptide: 25%
  Number of Transmitters which bound to peptide: 1
  Percent of Transmitters which bound to peptide: 25%

## 5099: gp41 peptide, amino acids 512-543, HIV strain IIIB, SEQ ID NO: 162 (AYGIGALFLGFLGAAGSTMGAASMTLTVQARC) [Peptide 5099]
  Number of Non-Transmitters which bound to peptide: 1
  Percent of Non-Transmitters which bound to peptide: 83%
  Number of Transmitters which bound to peptide: 0
  Percent of Transmitters which bound to peptide: 0%

## A824: gp41 peptide, amino acids 824-831, HIV strain IIIB, SEQ ID NO: 175 (EGTDRVIE) [Peptide A824]
  Number of Non-Transmitters which bound to peptide: 0
  Percent of Non-Transmitters which bound to peptide: 0%
  Number of Transmitters which bound to peptide: 0
  Percent of Transmitters which bound to peptide: 0%

## A524: gp41 peptide, amino acids 523-530, HIV strain MN, SEQ ID NO: 163 (FLGFLGAAGST) [Peptide A524]
  Number of Non-Transmitters which bound to peptide: 0
  Percent of Non-Transmitters which bound to peptide: 0%
  Number of Transmitters which bound to peptide: 0
  Percent of Transmitters which bound to peptide: 0%

## BS-2: gp41 peptide, amino acids 625-634, HIV strain IIIB, SEQ ID NO: 176 (NMTWMEWDRE)
  Number of Non-Transmitters which bound to peptide: 0
  Percent of Non-Transmitters which bound to peptide: 0%
  Number of Transmitters which bound to peptide: 0
  Percent of Transmitters which bound to peptide: 0%

## A487: gp120 peptide, amino acids 481-503, HIV strain IIIB, SEQ ID NO: 132 (ELYKYKVVKIEPLGVAPTKAKRR) [Peptide A487]
  Number of Non-Transmitters which bound to peptide: 1
  Percent of Non-Transmitters which bound to peptide: 8.3%
  Number of Transmitters which bound to peptide: 0
  Percent of Transmitters which bound to peptide: 0%

## A604 (IIIB): Peptide A604 (IIIB), Sequence ID No. 193 (CTTAVPWNASWSNKS)
  Number of Non-Transmitters which bound to peptide: 2
  Percent of Non-Transmitters which bound to peptide: 16.7%
  Number of Transmitters which bound to peptide: 0
  Percent of Transmitters which bound to peptide: 0%

## 41-22: gp41 peptide, amino acids 702-720, HIV strain BH10, SEQ ID NO: 155 [Peptide 41-22]
  Number of Non-Transmitters which bound to peptide: 0
  Percent of Non-Transmitters which bound to peptide: 0%
  Number of Transmitters which bound to peptide: 0
  Percent of Transmitters which bound to peptide: 0%

## KQIINMWQEVGKAMYA/CTRPNNNTRKSIRIQRGPG (KQIINMWQEVGKAMYACTRPNNNTRKSIRIQRGPG) [1/SP10IIIB]
  Correlation of peptide binding with non-transmitters (in words): selectively correlate with non-transmitters
  Fold binding, non-transmitters vs transmitters: at least two fold greater
  Number of Non-Transmitters which bound to peptide: 8
  Percent of Non-Transmitters which bound to peptide: 66.7%
  Number of Transmitters which bound to peptide: 1
  Percent of Transmitters which bound to peptide: 25%
Listed as 1/SP10 IIIB
  Percent of Non-Transmitters which bound to peptide: greater than 50%

## A581: gp41 peptide, amino acids 576-592, SEQ ID NO:120 (LQARILAVERYLKDQQL) [Peptide A581]
  Number of Non-Transmitters which bound to peptide: 2
  Percent of Non-Transmitters which bound to peptide: 16.7%
  Number of Transmitters which bound to peptide: 0
  Percent of Transmitters which bound to peptide: 0%

## VVQREKRAVGIG [Peptide 510]
  Number of Non-Transmitters which bound to peptide: 4
  Number of Transmitters which bound to peptide: 0
  Percent of Transmitters which bound to peptide: 0%

## 41-13: gp41 peptide, amino acids 616-632, HIV strain BRU, SEQ ID NO: 153 (NASWSNKSLEQIWNNMT) [Peptide 41-13]
  Number of Non-Transmitters which bound to peptide: 0
  Percent of Non-Transmitters which bound to peptide: 0%
  Number of Transmitters which bound to peptide: 0
  Percent of Transmitters which bound to peptide: 0%

## 41-21: gp41 peptide, amino acids 661-683, HIV strain IIIB, SEQ ID NO: 152 (LELDKWASLWNWFNITNWLWYIK) [Peptide 41-21]
  Number of Non-Transmitters which bound to peptide: 0
  Percent of Non-Transmitters which bound to peptide: 0%
  Number of Transmitters which bound to peptide: 0
  Percent of Transmitters which bound to peptide: 0%

## RG-2: gp41 peptide, amino acids 678-697, HIV strain IIIB, SEQ ID NO: 178 (WLWYIKLFIMIVGGLVGLRI)
  Number of Non-Transmitters which bound to peptide: 0
  Percent of Non-Transmitters which bound to peptide: 0%
  Number of Transmitters which bound to peptide: 0
  Percent of Transmitters which bound to peptide: 0%

## WSK-1: gp120 peptide, amino acids 378-394, SEQ ID NO:115 (GGEFFYCNSTQLFNSTW)
  Number of Non-Transmitters which bound to peptide: 0
  Percent of Non-Transmitters which bound to peptide: 0%
  Number of Transmitters which bound to peptide: 0
  Percent of Transmitters which bound to peptide: 0%

## A6939: gp120 peptide, amino acids 210-227, SEQ ID NO:108 (FEPIPIHYCAPAGFAILK) [Peptide A6939]
  Number of Non-Transmitters which bound to peptide: 0
  Percent of Non-Transmitters which bound to peptide: 0%
  Number of Transmitters which bound to peptide: 0
  Percent of Transmitters which bound to peptide: 0%

## A620: gp41 peptide, amino acids 615-627, HIV strain IIIB, SEQ ID NO: 172 (SNKSLEQIWNNMT) [Peptide A620]
  Number of Non-Transmitters which bound to peptide: 1
  Percent of Non-Transmitters which bound to peptide: 8.3%
  Number of Transmitters which bound to peptide: 0
  Percent of Transmitters which bound to peptide: 0%

## C21E: gp120 peptide, amino acids 252-272, HIV strain MN, SEQ ID NO: 147 (CTHGIRPVVSTQLLLNGSLAE) [Peptide C21E]
  Number of Non-Transmitters which bound to peptide: 0
  Percent of Non-Transmitters which bound to peptide: 0%
  Number of Transmitters which bound to peptide: 0
  Percent of Transmitters which bound to peptide: 0%
